Results: patent publication US20260215428A1, “WEED CONTROL METHOD” (SYNGENTA CROP PROTECTION AG, priority 2023, published 2026)

How the values were obtained:
Format in all cases: in vivo
Volunteer corn = assay: 26 field trials, control of volunteer corn, Table B1-6
Eleusine indica [1] = assay: Glasshouse post-emergence test, visual damage, Tables B1-2 and B1-3; details: 14 days after application
Description: Seeds of a variety of test species are sown in standard soil in pots. For each treatment, three replicate pots containing 10-15 plants per one-inch pot were sprayed at the 2-3 leaf stage. […] The test plants are then grown in a glasshouse under controlled conditions in a glasshouse (at 24/16° C., day/night; 14 hours light; 65% humidity) and watered twice daily. Plants were assessed for visual damage compared to the untreated control 14 days after application (0=0% damage; 100=100% damage).

Lolium multiflorum = assay: Glasshouse post-emergence test, visual damage, Table B1-1
Description: Seeds of a variety of test species are sown in standard soil in pots. For each treatment, three replicate pots containing 10-15 plants per one-inch pot were sprayed at the 2-3 leaf stage. Clethodim and Compound (Ic) were each applied at 15, 30, 60 and 120 g ai/ha. The test plants are then grown in a glasshouse under controlled conditions in a glasshouse (at 24/16° C., day/night; 14 hours light; 65% humidity) and watered twice daily. […]

Eleusine indica [2] = assay: Further glasshouse test versus other ACCase-inhibiting herbicides, Table B2-2; details: 21 days after application
Excerpt: Further tests were employed to test the efficacy of a compound of Formula I versus other ACCase-inhibiting herbicides. The five main targets were Lolium multiflorum, Eleusine indica, Digitaria insularis, Sorghum halepense and Echinochloa crus-galli. Collectively, the populations contained all the major target-site resistance mutations affecting ACCase herbicides. Two L. multiflorum (LM-NTSR-1 and LM-NTSR-2) and one E. crus-galli (ECG-NTSR-1) populations were characterised exclusively by non-target-site resistance (“NTSR”). The target-site resistant L. multiflorum and E. indication populations were 100% homozygous for different ACCase mutations whilst the D. insularis, S. halepense and E. crus-galli samples contained a mixture of homozygous wild and mutant individuals at different genotypic frequencies. Additional underlying NTSR cannot be ruled out in the populations characterised by target-site resistance.
Around 50 seeds of each of the 24 weed populations were sown in 12-cm pots containing a mixture of peat and compost in a 1:1 ratio. The pots were watered, fertilised and kept in controlled glasshouse conditions set at 24° C./16 hr day, 18° C. night, 65% relative humidity, and a photon flux density of approximately 250 μmol quanta m^−2 s^−1 for Lolium multiflorum. The E. indica, D. insularis, S. halepense and E. crus-galli plants were kept in a separate glasshouse bay characterised by a 17 H photoperiod of 180 μmol m^−2 s^−1 with temperatures of 25° C. day and 19° C. night and 65% relative humidity. When the plants were at the two to four-leaf stage, they were treated with the various ACCase-inhibiting herbicides at 0, 15, 30, 60, 120 and 240 g ai ha^−1 in a spray cabinet mounted with a single mobile Teejet flat fan nozzle (11002VS) calibrated to deliver 200 L ha^−1 at 200 kPa. The L. multiflorum populations were treated by a compound of Formula Ic, clodinafop-propargyl, pinoxaden, cycloxydim and clethodim and the warm season grass weeds E. indica, D. insularis, S. halepense and E. crus-galli were sprayed with a Compound Ic and the commonly employed haloxyfop-methyl and clethodim. Three replicate pots were used per population. Plants were assessed for visual damage compared to the untreated control 21 days after application (0=0% damage; 100=100% damage).

CC#Cc1ccc(C2=C(OC(=O)OC)C3CCC(C3)C2=O)c(OC)c1 (stereo not shown) [Compound Ic]
60%: visual damage (Eleusine indica [1]; Table B1-2, biotype NTSR (non-target site resistance), 4 g/ha)
50%: visual damage (Eleusine indica [2]; biotype I2041N, 15 g/ha)
98%: visual damage (Eleusine indica [1]; Table B1-3, Pop1 (mix of sensitive, D2078G and G2096A biotypes), 15 g/ha) | visual damage (Eleusine indica [2]; biotype G2096A, 30 g/ha) | visual damage (Eleusine indica [2]; biotype I2041N, 30 g/ha)
20%: visual damage (Eleusine indica [1]; Table B1-2, biotype NTSR (non-target site resistance), 1 g/ha)
40%: visual damage (Eleusine indica [1]; Table B1-2, biotype NTSR (non-target site resistance), 2 g/ha) | visual damage (Lolium multiflorum; biotype GG2078 (homozygous), 15 g/ha, 14 days after application)
83%: visual damage (Eleusine indica [1]; Table B1-2, biotype D2078G + W2027C (heterozygous), second entry, 15 g/ha)
93%: Control (14d) (Volunteer corn; 25 g/ha) | visual damage (Eleusine indica [2]; biotype G2096A, 15 g/ha)
86%: visual damage (Eleusine indica [1]; Table B1-3, Pop2 (mix of sensitive, D2078G and G2096A biotypes), 15 g/ha)
73%: visual damage (Eleusine indica [1]; Table B1-2, biotype NTSR (non-target site resistance), 8 g/ha)
47%: visual damage (Lolium multiflorum; biotype NN2041 (homozygous), 15 g/ha, 14 days after application)
88%: visual damage (Eleusine indica [2]; biotype D2078G, 15 g/ha)
100%: Control (28d) (Volunteer corn; 50 g/ha) | Control (28d) (Volunteer corn; 100 g/ha) | Control (28d) (Volunteer corn; 200 g/ha) | visual damage (Eleusine indica [1]; Table B1-2, biotype 87% I1781L (heterozygous), 30 g/ha) | visual damage (Eleusine indica [1]; Table B1-2, biotype 87% I1781L (heterozygous), 60 g/ha) | visual damage (Eleusine indica [1]; Table B1-2, biotype 87% I1781L (heterozygous), 120 g/ha) | visual damage (Eleusine indica [1]; Table B1-2, biotype D2078G + W2027C (heterozygous), first entry, 30 g/ha) | visual damage (Eleusine indica [1]; Table B1-2, biotype D2078G + W2027C (heterozygous), first entry, 60 g/ha) | visual damage (Eleusine indica [1]; Table B1-2, biotype D2078G + W2027C (heterozygous), first entry, 120 g/ha) | visual damage (Eleusine indica [1]; Table B1-2, biotype D2078G + W2027C (heterozygous), second entry, 30 g/ha) | visual damage (Eleusine indica [1]; Table B1-2, biotype D2078G + W2027C (heterozygous), second entry, 60 g/ha) | visual damage (Eleusine indica [1]; Table B1-2, biotype D2078G + W2027C (heterozygous), second entry, 120 g/ha) | visual damage (Eleusine indica [1]; Table B1-2, biotype I2041N (heterozygous), 30 g/ha) | visual damage (Eleusine indica [1]; Table B1-2, biotype I2041N (heterozygous), 60 g/ha) | visual damage (Eleusine indica [1]; Table B1-2, biotype I2041N (heterozygous), 120 g/ha) | visual damage (Eleusine indica [1]; Table B1-2, biotype Sensitive, 15 g/ha) | visual damage (Eleusine indica [1]; Table B1-2, biotype Sensitive, 30 g/ha) | visual damage (Eleusine indica [1]; Table B1-2, biotype Sensitive, 60 g/ha) | visual damage (Eleusine indica [1]; Table B1-2, biotype Sensitive, 120 g/ha) | visual damage (Eleusine indica [1]; Table B1-3, Pop1 (mix of sensitive, D2078G and G2096A biotypes), 30 g/ha) | visual damage (Eleusine indica [1]; Table B1-3, Pop1 (mix of sensitive, D2078G and G2096A biotypes), 60 g/ha) | visual damage (Eleusine indica [1]; Table B1-3, Pop1 (mix of sensitive, D2078G and G2096A biotypes), 120 g/ha) | visual damage (Eleusine indica [1]; Table B1-3, Pop2 (mix of sensitive, D2078G and G2096A biotypes), 30 g/ha) | visual damage (Eleusine indica [1]; Table B1-3, Pop2 (mix of sensitive, D2078G and G2096A biotypes), 60 g/ha) | visual damage (Eleusine indica [1]; Table B1-3, Pop2 (mix of sensitive, D2078G and G2096A biotypes), 120 g/ha) | visual damage (Eleusine indica [1]; Table B1-3, biotype Sensitive, 15 g/ha) | visual damage (Eleusine indica [1]; Table B1-3, biotype Sensitive, 30 g/ha) | visual damage (Eleusine indica [1]; Table B1-3, biotype Sensitive, 60 g/ha) | visual damage (Eleusine indica [1]; Table B1-3, biotype Sensitive, 120 g/ha) | visual damage (Lolium multiflorum; biotype CC2027 (homozygous), 15 g/ha, 14 days after application) | visual damage (Lolium multiflorum; biotype CC2027 (homozygous), 30 g/ha, 14 days after application) | visual damage (Lolium multiflorum; biotype CC2027 (homozygous), 60 g/ha, 14 days after application) | visual damage (Lolium multiflorum; biotype CC2027 (homozygous), 120 g/ha, 14 days after application) | visual damage (Lolium multiflorum; biotype GG2078 (homozygous), 30 g/ha, 14 days after application) | visual damage (Lolium multiflorum; biotype GG2078 (homozygous), 60 g/ha, 14 days after application) | visual damage (Lolium multiflorum; biotype GG2078 (homozygous), 120 g/ha, 14 days after application) | visual damage (Lolium multiflorum; biotype LL1781 (homozygous), 15 g/ha, 14 days after application) | visual damage (Lolium multiflorum; biotype LL1781 (homozygous), 30 g/ha, 14 days after application) | visual damage (Lolium multiflorum; biotype LL1781 (homozygous), 60 g/ha, 14 days after application) | visual damage (Lolium multiflorum; biotype LL1781 (homozygous), 120 g/ha, 14 days after application) | visual damage (Lolium multiflorum; biotype NN2041 (homozygous), 30 g/ha, 14 days after application) | visual damage (Lolium multiflorum; biotype NN2041 (homozygous), 60 g/ha, 14 days after application) | visual damage (Lolium multiflorum; biotype NN2041 (homozygous), 120 g/ha, 14 days after application) | visual damage (Lolium multiflorum; biotype RR2088 (homozygous), 15 g/ha, 14 days after application) | visual damage (Lolium multiflorum; biotype RR2088 (homozygous), 30 g/ha, 14 days after application) | visual damage (Lolium multiflorum; biotype RR2088 (homozygous), 60 g/ha, 14 days after application) | visual damage (Lolium multiflorum; biotype RR2088 (homozygous), 120 g/ha, 14 days after application) | visual damage (Lolium multiflorum; biotype SS1999 (homozygous), 30 g/ha, 21 DAA) | visual damage (Lolium multiflorum; biotype SS1999 (homozygous), 60 g/ha, 21 DAA) | visual damage (Lolium multiflorum; biotype SS1999 (homozygous), 120 g/ha, 21 DAA) | visual damage (Lolium multiflorum; biotype Sensitive, 15 g/ha, 14 days after application) | visual damage (Lolium multiflorum; biotype Sensitive, 30 g/ha, 14 days after application) | visual damage (Lolium multiflorum; biotype Sensitive, 60 g/ha, 14 days after application) | visual damage (Lolium multiflorum; biotype Sensitive, 120 g/ha, 14 days after application) | visual damage (Eleusine indica [2]; biotype D2078G, 30 g/ha) | visual damage (Eleusine indica [2]; biotype D2078G, 60 g/ha) | visual damage (Eleusine indica [2]; biotype D2078G, 120 g/ha) | visual damage (Eleusine indica [2]; biotype D2078G, 240 g/ha) | visual damage (Eleusine indica [2]; biotype G2096A, 60 g/ha) | visual damage (Eleusine indica [2]; biotype G2096A, 120 g/ha) | visual damage (Eleusine indica [2]; biotype G2096A, 240 g/ha) | visual damage (Eleusine indica [2]; biotype I2041N, 60 g/ha) | visual damage (Eleusine indica [2]; biotype I2041N, 120 g/ha) | visual damage (Eleusine indica [2]; biotype I2041N, 240 g/ha) | visual damage (Eleusine indica [2]; biotype Sensitive, 15 g/ha) | visual damage (Eleusine indica [2]; biotype Sensitive, 30 g/ha) | visual damage (Eleusine indica [2]; biotype Sensitive, 60 g/ha) | visual damage (Eleusine indica [2]; biotype Sensitive, 120 g/ha) | visual damage (Eleusine indica [2]; biotype Sensitive, 240 g/ha) | visual damage (Eleusine indica [2]; biotype W2027C, 15 g/ha) | visual damage (Eleusine indica [2]; biotype W2027C, 30 g/ha) | visual damage (Eleusine indica [2]; biotype W2027C, 60 g/ha) | visual damage (Eleusine indica [2]; biotype W2027C, 120 g/ha) | visual damage (Eleusine indica [2]; biotype W2027C, 240 g/ha)
87%: visual damage (Eleusine indica [1]; Table B1-2, biotype D2078G + W2027C (heterozygous), first entry, 15 g/ha)
99%: Control (28d) (Volunteer corn; 25 g/ha) | Control (14d) (Volunteer corn; 50 g/ha) | Control (14d) (Volunteer corn; 100 g/ha) | Control (14d) (Volunteer corn; 200 g/ha)
97%: visual damage (Eleusine indica [1]; Table B1-2, biotype 87% I1781L (heterozygous), 15 g/ha)
85%: visual damage (Lolium multiflorum; biotype SS1999 (homozygous), 15 g/ha, 21 DAA)
70%: visual damage (Eleusine indica [1]; Table B1-2, biotype I2041N (heterozygous), 15 g/ha)
